What all share (type): cell-based
Experiment [1] deals with cultured monkey corneal endothelial cells. The experiment is described as follows: UV-induced cell death of cultured monkey corneal endothelial cells (phase difference microscope). The note with it: UV 100 J/m^2; 9 hours after irradiation; 10 μM SB203580, 3 μM BIRB796, 1 μM PH-797804, 3 μM VX-702, 3 μM LY2228820, 3 μM TAK-715. The procedure: (§1) 1×10^5 cultured monkey corneal endothelial cells were seeded on a 12-well plate coated with an FNC Coating Mix and cultured for about 5 days until reaching confluence under the condition of 5% CO2 at 37° C.
Medium: Dulbecco's Modified Eagle Medium (DMEM, Gibco, 12320-032), 10% FBS, 1% Penicillin-Streptomycin (nacalai tesque, 26252-94)
(§2) Each inhibitor was then added at the concentration in the above-described Table and the cells were incubated for 16 hours under the condition of 5% CO2 at 37° C. The solvent of each reagent, Dimethyl Sulfoxide, Sterile-filtered (nacalai tesque, 13408-64) MSO, was added to the Control group and the UV group. Gibco DMEM, 1% P/S (penicillin/streptomycin) was used as the medium.
(§3) The cellular supernatant was then removed and the cells were irradiated with UV (100 J/m^2). After irradiation, cells were again added to a medium containing each inhibitor and cultured for 9 hours. The cell form and apoptosis were observed under a phase difference microscope.

The test system is the same in experiment [2]. The experiment is described as follows: UV-induced apoptosis of cultured monkey corneal endothelial cells, Annexin V and DAPI staining. As to conditions: UV 100 J/m^2, after 9 hours of culture. The procedure: as §1, §2, §3
The cells, after 9 hours of culture, were stained for 20 minutes at 37° C. by using MEBCYTO-Apoptosis Kit (Annexin V-FITC Kit) (manufacturer: MBL, Code: 4700). The cells were then immobilized for 10 minutes with 95% acetic acid ethanol. After immobilization, the cells were stained for 30 minutes with DAPI Solution (manufacturer: DOJINDO, Code: GA098) and observed under a confocal microscope.

Experiment [3] deals with cynomolgus monkey corneal endothelial cells. Kind of experiment: BrdU ELISA, concentration series, cynomolgus monkey corneal endothelial cells (Example 8). As to conditions: concentration series per agent between 0.1 μM and 100 μM; 5000 cells/well; * p<0.01. The procedure:
The medium was removed from a culture dish culturing cynomolgus monkey corneal endothelial cells ([…] phosphate buffer solution (Nacalai Tesque, 14249-95) heated to 37° C. in advance was added thereto and the cells were washed. This operation was repeated twice. After removing the phosphate buffer solution, 0.05% Trypsin-EDTA (Nacalai Tesque, 35554-64) was added and the cells were incubated for 10 minutes at 37° C. (5% CO2). The cells were then suspended in DMEM (Nacalai Tesque, 08456-94)+10% FBS (Biowest, S1820-500)+1% penicillin/streptomycin (P/S, Nacalai Tesque, 26252-94) and centrifuged for 3 minutes at 1200 rpm to collect the cells. A 96-well plate was treated with an FNC coating mix (50 ml ([…], catalog number: 0407). The monkey corneal endothelial cells (lot: 20120404-3L-P8) were seeded in the coated 96-well plate at a ratio of 5000 cells/well. The cells were cultured for 30 hours at 37° C. (5% CO2). After 30 hours, the medium was removed and changed to a serum free medium: DMEM+1% P/S to culture the cells for 18 hours. […] DMSO was added to the control. After 24 hours, a BrdU labeling reagent (Amersham Cell Proliferation Biotrak ELISA System, Version 2, GE Healthcare, catalog number: RPN250) was further added at a ratio of 1:1000 to the DMEM+10% FBS+1% P/S medium. […] DMSO was added to the control. After 24 hours, BrdU ELISA was carried out with Amersham Cell Proliferation Biotrak ELISA System, Version 2 (GE Healthcare, catalog number: RPN250). The absorbance at 450 nm was measured. *P<0.01, Dunnet's test, n=5. As in (1), the medium was removed from a culture dish culturing cynomolgus monkey corneal endothelial cells. A phosphate buffer solution heated to 37° C. in advance was added thereto and the cells were washed. This operation was repeated twice. After removing the phosphate buffer solution, 0.05% Trypsin-EDTA (Nacalai Tesque, 35554-64) was added and the cells were incubated for 10 minutes at 37° C. (5% CO2). The cells were then suspended in DMEM (Nacalai Tesque, 08456-94)+10% FBS (Biowest, S1820-500)+1% penicillin/streptomycin (Nacalai Tesque, catalog number: 26252-94) and centrifuged for 3 minutes at 1200 rpm to collect the cells. A 96-well plate was treated with an FNC coating mix (50 ml ([…], catalog number: 0407). Monkey corneal endothelial cells (lot: 20120404-3L-P8) were seeded in the coated 96-well plate at a ratio of 5000 cells/well. The cells were cultured for 30 hours at 37° C. (5% CO2). After 30 hours, the medium was removed and changed to a serum free medium: DMEM+1% P/S to culture the cells for 18 hours. After 18 hours, Semapimod HCl (MedKoo Biosciences, catalog number: 202590, lot number: SMC20120918) was added to the DMEM+10% FBS+1% P/S medium such that the final concentration dissolved with DMSO was 0.1, 0.3, 1, 3, or 10 μmol/l, and the cells were cultured for 24 hours. DMSO was added to the control. After 24 hours, a BrdU labeling reagent (Amersham Cell Proliferation Biotrak ELISA System, Version 2, GE Healthcare, catalog number: RPN250) was further added at a ratio of 1:1000 to the DMEM+10% FBS+1% P/S medium. Semapimod HCl was added such that the final concentration was 0.1, 0.3, 1, 3, or 10 μmol/l and the cells were cultured for 24 hours. DMSO was added to the control. After 24 hours, BrdU ELISA was carried out with Amersham Cell Proliferation Biotrak ELISA System, Version 2 (GE Healthcare, catalog number: RPN250). The absorbance at 450 nm was measured. […]
Background: Dividing cells build labelled thymidine or BrdU into new DNA.

Experiment [4] relates to human corneal endothelial cells. Kind of experiment: UV-induced cell death, live cell count. The note with it: UV 100 J/m^2; 10 μM; 12 hours after UV irradiation; vs UV only. As for the experimental part: In order to study the effect of a p38 MAP kinase signal inhibition on cell death, cultured human corneal endothelial cells were stimulated with ultraviolet rays (UV) of 100 J/m^2 to induce cell death to study the effect of SB203580 (used at 10 μM). The number of cells was counted for the study.

Molecules are shown by their SMILES.

With `CC(C)(C)Cn1c(N)nc2ccc(-c3nc(C(C)(C)C)[nH]c3-c3ccc(F)cc3)nc21` [LY2228820, 5-(2-(tert-butyl)-5-(4-fluorophenyl)-1H-imidazole-4-yl)-3-neopentyl-3H-imidazo[4,5-b]pyridine-2-amine], the “Cellular disorders (cell death) induced by UV” value (shortened to “Cellular disorders”) in experiment [1] is given as “suppressed”. The “Apoptosis induced by UV (annexin V staining)” value (from here on “Apoptosis induced by UV”) in experiment [2] is “suppressed”. In experiment [3], the “BrdU uptake as a percentage with respect to the control (proliferation)” value (from here on “BrdU uptake as a percentage”) is “promotes proliferation”.
For `Cc1ccc(-n2nc(C(C)(C)C)cc2NC(=O)Nc2ccc(OCCN3CCOCC3)c3ccccc23)cc1` [BIRB796, N-[3-tert-butyl-1-(4-methylphenyl)pyrazole-5-yl]-N′-[4-(2-morpholinoethoxy)-1-naphthyl]urea], in experiment [1], the “Cellular disorders” value was “suppressed”. Also, in experiment [2], the “Apoptosis induced by UV” value is given as “suppressed”. Also, the “BrdU uptake as a percentage” value in experiment [3] is “promotes proliferation”.
For the molecule `CCc1nc(-c2cccc(C)c2)c(-c2ccnc(NC(=O)c3ccccc3)c2)s1` [TAK-715, 2-benzamide-4-[2-ethyl-4-(3-methylphenyl)thiazole-5-yl]pyridine], in experiment [1], the “Cellular disorders” value is “suppressed”. In experiment [2], the “Apoptosis induced by UV” value was “suppressed”. Besides, the “BrdU uptake as a percentage” value in experiment [3] was “promotes proliferation”.
With `CNC(=O)c1ccc(C)c(-n2c(C)cc(OCc3ccc(F)cc3F)c(Br)c2=O)c1` [PH-797804, 3-(3-bromo-4-((2,4-difluorobenzyl)oxy)-6-methyl-2-oxopyridine-1(2H)-yl)-N,4-dimethylbenzamide], the “Cellular disorders” value in experiment [1] is on record as “suppressed”. Also, in experiment [2], the “Apoptosis induced by UV” value is on record as “suppressed”. The “BrdU uptake as a percentage” value in experiment [3] was “promotes proliferation”.
As to `C[S+]([O-])c1ccc(-c2nc(-c3ccncc3)c(-c3ccc(F)cc3)[nH]2)cc1` (stereo not shown) [SB203580, 4-(4-fluorophenyl)-2-(4-methylsulfinylphenyl)-5-(4-pyridyl)-1H-imidazole], the “Cellular disorders” value in experiment [1] is “suppressed”. Also, the “number of live cells after UV irradiation (percentage to control)” value in experiment [4] is recorded as “significantly increases”. Also, the “Apoptosis induced by UV” value in experiment [2] was “suppressed”. Further, the “BrdU uptake as a percentage” value in experiment [3] was “promotes proliferation”.
